Biological target: T1, AR (Homo sapiens, UniProt P10275)
T1 sequence (P10275 1-920): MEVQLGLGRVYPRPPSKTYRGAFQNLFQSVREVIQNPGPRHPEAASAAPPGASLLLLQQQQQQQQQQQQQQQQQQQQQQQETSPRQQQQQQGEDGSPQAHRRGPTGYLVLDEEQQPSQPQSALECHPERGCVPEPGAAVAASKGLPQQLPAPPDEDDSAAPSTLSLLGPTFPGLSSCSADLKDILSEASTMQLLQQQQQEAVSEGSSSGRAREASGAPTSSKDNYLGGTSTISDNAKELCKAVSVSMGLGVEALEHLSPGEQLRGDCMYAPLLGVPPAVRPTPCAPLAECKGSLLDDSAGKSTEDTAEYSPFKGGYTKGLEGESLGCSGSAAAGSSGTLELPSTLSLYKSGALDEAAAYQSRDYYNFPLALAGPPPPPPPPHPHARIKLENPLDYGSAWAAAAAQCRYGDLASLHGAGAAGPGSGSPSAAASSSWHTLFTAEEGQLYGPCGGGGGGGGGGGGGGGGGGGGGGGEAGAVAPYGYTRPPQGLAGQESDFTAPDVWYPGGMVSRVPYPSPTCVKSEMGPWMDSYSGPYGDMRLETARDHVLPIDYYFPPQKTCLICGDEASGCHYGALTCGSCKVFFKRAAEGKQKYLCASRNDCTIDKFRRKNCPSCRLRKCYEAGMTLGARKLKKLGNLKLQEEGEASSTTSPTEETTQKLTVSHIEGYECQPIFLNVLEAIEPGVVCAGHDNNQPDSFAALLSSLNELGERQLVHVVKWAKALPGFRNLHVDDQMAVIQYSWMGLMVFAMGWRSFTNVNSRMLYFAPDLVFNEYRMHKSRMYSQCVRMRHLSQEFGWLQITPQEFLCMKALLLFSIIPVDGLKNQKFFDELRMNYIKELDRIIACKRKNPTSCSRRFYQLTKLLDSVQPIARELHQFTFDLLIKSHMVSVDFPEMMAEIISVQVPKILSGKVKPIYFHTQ
Assay: YAS (Yeast androgen screen) assay, agonist and antagonist mode
Procedure: The YES/YAS XL (Xtra Lyticase) assay kit from Xenometrix AG (Allschwil, Switzerland) was conducted according to the Supplier’s instructions.
In the YES assay, human ERα is integrated in the yeast (Saccharomyces cerevisiae) chromosome, and for the YAS assay human AR is integrated (Routledge and Sumpter 1996; Sohoni and Sumpter 1998). […] This enzyme then converts a yellow substrate to a purple metabolite, which can be measured colorimetrically.
Growing yeast cells stably transformed with either hERα (YES) or hAR (YAS) and a β-galactosidase reporter system were exposed to a range of concentrations of each test compound. […] The positive control chemicals for agonistic effects were 17-β estradiol for YES and 5α-dihydrotestosterone for YAS. […] A combination of a fixed concentration of positive control and a range of concentrations of each test chemical were tested. The cells were incubated with each treatment for 18 h at 31°C. The cells were lysed in the presence of the yellow β-galactosidase-substrate, chlorophenol red-β-D-galactopyranoside (CPRG). Yeast cell growth was assessed prior to addition of the lysis buffer by measuring the absorbance at 690 nm. The production of the red metabolite of CPRG was determined by measuring the absorbance at 570 nm. It was corrected for diffraction by cells and debris by a simultaneous measurement at 690 nm. The results were evaluated for estrogenic and androgenic agonistic and antagonistic activity, as well as for yeast growth inhibition or cytotoxicity.
An IR value ≥ IR10 in the YES or YAS agonist assay indicates an agonistic effect (IR10 is defined as the IR which is 10% of (IR max - IR solvent) above the IR solvent. An IR value ≤ IR50 in the YES or YAS antagonist assay indicates a possible antagonistic effect (IR50 is defined as 50% of (IR control - IR solvent), where the IR control is at the corresponding fixed concentration of agonist used: 3.3 × 10^-10 M 17-β estradiol and 3.3 × 10^-9 M 5α-dihydrotestosterone, respectively). […]

## CC(C)(C)CC(C)(C)c1ccc(O)cc1 [4-TO, 4-tert-octylphenol]
Agonist and antagonist
  outcome in the YAS assay: negative
Highest concentrations tested
  toxicity to yeast (decrease in the yeast cell growth): toxic at the highest concentrations tested

## CCCCN(CCCC)c1ccc(C(=O)c2ccccc2C(=O)O)c(O)c1 [DBABA, 2-[4-(dibutylamino)-2-hydroxybenzoyl]benzoic acid]
YAS antagonist assay
  AR antagonism in the YAS assay: inconclusive

— PMC10761396, “Evaluation of new alternative methods for the identification of estrogenic, androgenic and steroidogenic effects: a comparative in vitro/in silico study” (Archives of Toxicology, 2023)
